According to US20260356819A1, “OXOISOINDOLINYL-SUBSTITUTED […] DERIVATIVE AND USE THEREOF” (GLUETACS THERAPEUTICS (SHANGHAI) CO., LTD., priority 2023, published 2026):

How the values were obtained:
Type in all cases: cell-based
Details in all cases: compounds at 50 nM and 500 nM
[1] = target: T1, WEE1 (Homo sapiens, UniProt P30291+Q96SW2); assay: Western blot degradation of WEE1 in hPBMCs (24 h)
T1 construct: The supernatant was aspirated as the extracted total cell protein; endogenous in cells; host or cells: human peripheral blood mononuclear cells (hPBMCs)
T1 sequence (P30291 whole entry): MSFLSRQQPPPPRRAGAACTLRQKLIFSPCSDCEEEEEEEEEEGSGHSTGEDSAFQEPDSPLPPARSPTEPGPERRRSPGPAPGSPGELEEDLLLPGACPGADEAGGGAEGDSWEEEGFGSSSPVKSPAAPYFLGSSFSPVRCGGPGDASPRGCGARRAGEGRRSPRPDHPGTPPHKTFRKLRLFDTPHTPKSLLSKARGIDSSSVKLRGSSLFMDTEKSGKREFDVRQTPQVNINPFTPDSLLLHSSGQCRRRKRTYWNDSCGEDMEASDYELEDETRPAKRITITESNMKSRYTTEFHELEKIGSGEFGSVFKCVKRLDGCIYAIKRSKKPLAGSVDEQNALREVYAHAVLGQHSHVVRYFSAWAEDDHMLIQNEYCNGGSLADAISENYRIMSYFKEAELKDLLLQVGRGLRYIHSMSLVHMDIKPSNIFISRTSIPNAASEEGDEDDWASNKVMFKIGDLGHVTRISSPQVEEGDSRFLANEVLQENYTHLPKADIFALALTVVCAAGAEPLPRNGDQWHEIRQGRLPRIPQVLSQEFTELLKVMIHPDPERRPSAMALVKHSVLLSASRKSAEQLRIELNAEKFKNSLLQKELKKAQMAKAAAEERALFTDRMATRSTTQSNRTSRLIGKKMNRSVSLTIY
T1 sequence (Q96SW2 whole entry): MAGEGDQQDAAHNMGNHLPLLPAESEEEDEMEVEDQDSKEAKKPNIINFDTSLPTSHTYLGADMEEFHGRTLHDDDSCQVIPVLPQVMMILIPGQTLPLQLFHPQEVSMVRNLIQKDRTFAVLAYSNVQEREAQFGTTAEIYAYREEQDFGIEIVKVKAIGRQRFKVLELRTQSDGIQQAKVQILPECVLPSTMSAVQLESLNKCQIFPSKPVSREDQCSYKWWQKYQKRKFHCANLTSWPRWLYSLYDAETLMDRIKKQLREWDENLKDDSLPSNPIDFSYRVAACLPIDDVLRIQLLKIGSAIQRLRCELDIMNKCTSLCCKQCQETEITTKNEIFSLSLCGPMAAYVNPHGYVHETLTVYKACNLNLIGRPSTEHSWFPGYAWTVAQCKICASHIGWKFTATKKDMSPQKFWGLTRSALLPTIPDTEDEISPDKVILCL
T1 sequence (Q16531 whole entry partner): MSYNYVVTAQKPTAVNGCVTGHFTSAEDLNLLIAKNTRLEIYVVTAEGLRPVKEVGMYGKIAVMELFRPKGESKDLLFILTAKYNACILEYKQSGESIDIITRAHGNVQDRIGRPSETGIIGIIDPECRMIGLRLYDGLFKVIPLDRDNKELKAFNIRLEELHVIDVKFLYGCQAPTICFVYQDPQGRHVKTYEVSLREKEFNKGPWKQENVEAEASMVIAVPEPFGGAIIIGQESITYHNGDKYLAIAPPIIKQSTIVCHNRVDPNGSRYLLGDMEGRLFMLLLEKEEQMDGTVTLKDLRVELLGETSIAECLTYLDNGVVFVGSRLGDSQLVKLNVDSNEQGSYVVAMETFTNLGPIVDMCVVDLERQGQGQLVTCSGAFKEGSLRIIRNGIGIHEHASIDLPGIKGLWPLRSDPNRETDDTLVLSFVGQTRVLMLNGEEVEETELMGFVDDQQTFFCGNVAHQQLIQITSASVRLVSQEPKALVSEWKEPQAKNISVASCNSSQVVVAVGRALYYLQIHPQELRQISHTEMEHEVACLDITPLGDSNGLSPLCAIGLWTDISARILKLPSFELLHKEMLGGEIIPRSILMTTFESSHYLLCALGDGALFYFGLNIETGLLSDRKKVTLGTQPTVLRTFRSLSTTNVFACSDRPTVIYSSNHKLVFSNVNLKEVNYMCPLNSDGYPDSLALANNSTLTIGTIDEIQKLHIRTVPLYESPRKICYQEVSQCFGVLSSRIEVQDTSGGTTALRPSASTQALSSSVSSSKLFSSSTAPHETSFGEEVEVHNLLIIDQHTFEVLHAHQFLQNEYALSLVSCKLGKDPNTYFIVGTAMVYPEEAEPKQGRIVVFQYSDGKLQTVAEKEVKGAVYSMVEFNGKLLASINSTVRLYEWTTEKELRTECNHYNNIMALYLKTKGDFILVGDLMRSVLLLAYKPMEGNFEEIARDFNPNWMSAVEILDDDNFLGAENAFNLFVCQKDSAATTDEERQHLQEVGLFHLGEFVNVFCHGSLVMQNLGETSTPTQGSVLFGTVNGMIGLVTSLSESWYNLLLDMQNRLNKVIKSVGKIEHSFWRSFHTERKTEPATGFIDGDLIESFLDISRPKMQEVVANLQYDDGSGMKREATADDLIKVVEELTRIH
Procedure, shortened: (§1)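 In this assay, each compound was incubated with human PBMCs for 24 h at 50 nM and 500 nM. Target levels were measured by Western blot densitometry normalised to an internal control.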

[2] = target: T2, IKZF1 (Homo sapiens, UniProt Q13422+Q96SW2); assay: Western blot degradation of IKZF1 in hPBMCs (24 h)
T2 construct: The supernatant was aspirated as the extracted total cell protein; endogenous in cells; host or cells: human peripheral blood mononuclear cells (hPBMCs)
T2 sequence (Q13422 whole entry): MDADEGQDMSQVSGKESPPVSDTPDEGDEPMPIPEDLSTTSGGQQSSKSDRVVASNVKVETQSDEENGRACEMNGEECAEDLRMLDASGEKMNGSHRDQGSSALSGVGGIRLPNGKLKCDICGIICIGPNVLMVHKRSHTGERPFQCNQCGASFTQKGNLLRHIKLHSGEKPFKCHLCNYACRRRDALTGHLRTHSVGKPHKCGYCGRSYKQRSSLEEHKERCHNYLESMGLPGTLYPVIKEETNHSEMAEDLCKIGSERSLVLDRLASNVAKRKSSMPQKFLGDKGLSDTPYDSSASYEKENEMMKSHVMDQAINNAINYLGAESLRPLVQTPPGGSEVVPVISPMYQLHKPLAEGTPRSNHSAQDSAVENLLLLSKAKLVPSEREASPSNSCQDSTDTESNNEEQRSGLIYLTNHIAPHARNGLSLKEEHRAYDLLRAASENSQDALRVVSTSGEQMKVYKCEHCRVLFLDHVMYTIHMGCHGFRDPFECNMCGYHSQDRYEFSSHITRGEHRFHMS
T2 sequence (Q96SW2 whole entry): as the sequence (Q96SW2 whole entry) above
T2 sequence (Q16531 whole entry partner): as the sequence (Q16531 whole entry partner) above
Procedure, shortened: as §1

[3] = target: T3, IKZF2 (Homo sapiens, UniProt Q96SW2+Q9UKS7); assay: Western blot degradation of IKZF2 in hPBMCs (24 h)
T3 construct: The supernatant was aspirated as the extracted total cell protein; endogenous in cells; host or cells: human peripheral blood mononuclear cells (hPBMCs)
T3 sequence (Q9UKS7 whole entry): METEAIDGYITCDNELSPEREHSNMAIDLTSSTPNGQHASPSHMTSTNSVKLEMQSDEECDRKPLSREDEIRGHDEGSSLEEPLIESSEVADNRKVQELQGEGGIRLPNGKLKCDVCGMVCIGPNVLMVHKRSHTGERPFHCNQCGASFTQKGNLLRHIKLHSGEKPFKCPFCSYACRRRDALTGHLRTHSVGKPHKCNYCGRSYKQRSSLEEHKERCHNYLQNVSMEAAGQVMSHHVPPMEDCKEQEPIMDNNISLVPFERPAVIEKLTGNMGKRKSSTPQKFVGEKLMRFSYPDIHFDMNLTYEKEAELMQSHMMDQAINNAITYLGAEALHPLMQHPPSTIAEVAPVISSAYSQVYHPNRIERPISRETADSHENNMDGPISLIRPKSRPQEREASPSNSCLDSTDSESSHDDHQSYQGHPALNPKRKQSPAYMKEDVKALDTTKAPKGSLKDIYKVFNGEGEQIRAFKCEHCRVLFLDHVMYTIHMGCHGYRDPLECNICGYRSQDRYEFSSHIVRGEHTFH
T3 sequence (Q96SW2 whole entry): as the sequence (Q96SW2 whole entry) above
T3 sequence (Q16531 whole entry partner): as the sequence (Q16531 whole entry partner) above
Procedure, shortened: as §1

[4] = target: T4, IKZF3 (Homo sapiens, UniProt Q96SW2+Q9UKT9); assay: Western blot degradation of IKZF3 in hPBMCs (24 h)
T4 construct: The supernatant was aspirated as the extracted total cell protein; endogenous in cells; host or cells: human peripheral blood mononuclear cells (hPBMCs)
T4 sequence (Q9UKT9 whole entry): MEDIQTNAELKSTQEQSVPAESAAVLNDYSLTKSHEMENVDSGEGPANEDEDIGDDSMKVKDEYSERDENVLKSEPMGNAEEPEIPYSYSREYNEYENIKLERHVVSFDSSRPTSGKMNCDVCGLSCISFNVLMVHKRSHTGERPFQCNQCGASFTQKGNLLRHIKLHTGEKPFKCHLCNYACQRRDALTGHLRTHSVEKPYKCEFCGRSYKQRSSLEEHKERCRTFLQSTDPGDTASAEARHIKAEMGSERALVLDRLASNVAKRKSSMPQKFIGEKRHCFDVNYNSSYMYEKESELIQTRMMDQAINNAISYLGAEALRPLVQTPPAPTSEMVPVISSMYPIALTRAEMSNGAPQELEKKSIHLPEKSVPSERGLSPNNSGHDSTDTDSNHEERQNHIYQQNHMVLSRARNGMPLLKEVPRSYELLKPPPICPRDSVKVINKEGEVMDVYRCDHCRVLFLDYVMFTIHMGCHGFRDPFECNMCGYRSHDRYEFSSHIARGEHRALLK
T4 sequence (Q96SW2 whole entry): as the sequence (Q96SW2 whole entry) above
T4 sequence (Q16531 whole entry partner): as the sequence (Q16531 whole entry partner) above
Procedure, shortened: as §1

[5] = target: T5, CK1α (Homo sapiens, UniProt P48729+Q96SW2); assay: Western blot degradation of CK1α in hPBMCs (24 h)
T5 construct: The supernatant was aspirated as the extracted total cell protein; endogenous in cells; host or cells: human peripheral blood mononuclear cells (hPBMCs)
Procedure, shortened: as §1

[6] = target: T6, GSPT1 (Homo sapiens, UniProt P15170+Q96SW2); assay: Western blot degradation of GSPT1 in hPBMCs (24 h)
T6 construct: The supernatant was aspirated as the extracted total cell protein; endogenous in cells; host or cells: human peripheral blood mononuclear cells (hPBMCs)
T6 sequence (P15170 whole entry): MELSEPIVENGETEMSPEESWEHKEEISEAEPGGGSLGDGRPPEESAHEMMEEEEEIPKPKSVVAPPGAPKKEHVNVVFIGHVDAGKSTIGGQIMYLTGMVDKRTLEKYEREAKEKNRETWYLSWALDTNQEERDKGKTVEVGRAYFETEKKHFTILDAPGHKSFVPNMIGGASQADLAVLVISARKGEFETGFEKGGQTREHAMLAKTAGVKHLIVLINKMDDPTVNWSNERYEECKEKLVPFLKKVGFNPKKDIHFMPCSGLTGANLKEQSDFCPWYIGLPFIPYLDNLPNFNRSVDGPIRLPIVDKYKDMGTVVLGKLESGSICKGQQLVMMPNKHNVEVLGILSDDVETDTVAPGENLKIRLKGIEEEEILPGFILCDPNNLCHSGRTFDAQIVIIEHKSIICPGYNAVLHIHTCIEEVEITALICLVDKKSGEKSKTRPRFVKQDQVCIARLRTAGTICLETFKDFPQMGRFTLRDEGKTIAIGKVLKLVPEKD
T6 sequence (Q96SW2 whole entry): as the sequence (Q96SW2 whole entry) above
T6 sequence (Q16531 whole entry partner): as the sequence (Q16531 whole entry partner) above
Procedure, shortened: as §1

## O=C1CCN(N2Cc3cc(CN4C5CC4CN(C(=O)C4=C(c6ccc(F)cc6)CCCC4)C5)ccc3C2=O)C(=O)N1 [GT-07376, 1-(5-((3-(4′-fluoro-3,4,5,6-tetrahydro-[1,1′-biphenyl]-2-carbonyl)-3,6-diazabicyclo[3.1.1]heptan-6-yl)methyl)-1-oxoisoindolin-2-yl)dihydropyrimidine-2,4(1H,3H)-dione]
[1]
  WEE1 substrate protein remaining %: A (0% ≤ substrate protein remaining % ≤80%)
[2]
  IKZF1 substrate protein remaining %: B (80%< substrate protein remaining % ≤100%)
[3]
  IKZF2 substrate protein remaining %: B (80%< substrate protein remaining % ≤100%)
[4]
  IKZF3 substrate protein remaining %: B (80%< substrate protein remaining % ≤100%)
[5]
  CK1α substrate protein remaining %: B (80%< substrate protein remaining % ≤100%)
[6]
  GSPT1 substrate protein remaining %: B (80%< substrate protein remaining % ≤100%)

## O=C1CCN(N2C(=O)c3ccc(CN4CCN(c5ccccc5)CC4)cc3C2=O)C(=O)N1 [GT-06719, 2-(2,4-dioxotetrahydropyrimidin-1(2H)-yl)-5-((4-phenylpiperazin-1-yl)methyl)isoindoline-1,3-dione]
[1]
  WEE1 substrate protein remaining %: B (80%< substrate protein remaining % ≤100%)
[2]
  IKZF1 substrate protein remaining %: B (80%< substrate protein remaining % ≤100%)
[3]
  IKZF2 substrate protein remaining %: B (80%< substrate protein remaining % ≤100%)
[4]
  IKZF3 substrate protein remaining %: A (0% ≤ substrate protein remaining % ≤80%)
[5]
  CK1α substrate protein remaining %: B (80%< substrate protein remaining % ≤100%)
[6]
  GSPT1 substrate protein remaining %: B (80%< substrate protein remaining % ≤100%)

## O=C1CCN(N2Cc3cc(CN4CC=C(c5cccc(F)c5Cl)CC4)ccc3C2=O)C(=O)N1 [GT-08055, 1-(5-((4-(2-chloro-3-fluorophenyl)-3,6-dihydropyridin-1(2H)-yl)methyl)-1-oxoisoindolin-2-yl)dihydropyrimidine-2,4(1H,3H)-dione]
[1]
  WEE1 substrate protein remaining %: A (0% ≤ substrate protein remaining % ≤80%)
[2]
  IKZF1 substrate protein remaining %: A (0% ≤ substrate protein remaining % ≤80%)
[3]
  IKZF2 substrate protein remaining %: A (0% ≤ substrate protein remaining % ≤80%)
[4]
  IKZF3 substrate protein remaining %: A (0% ≤ substrate protein remaining % ≤80%)
[5]
  CK1α substrate protein remaining %: A (0% ≤ substrate protein remaining % ≤80%)
[6]
  GSPT1 substrate protein remaining %: A (0% ≤ substrate protein remaining % ≤80%)

## O=C1CCN(N2C(=O)c3ccc(CN4CCC(c5cccc(Cl)c5Cl)CC4)cc3C2=O)C(=O)N1 [GT-05250, 5-((4-(2,3-dichlorophenyl)piperidin-1-yl)methyl)-2-(2,4-dioxotetrahydropyrimidin-1(2H)-yl)isoindoline-1,3-dione]
[1]
  WEE1 substrate protein remaining %: B (80%< substrate protein remaining % ≤100%)
[2]
  IKZF1 substrate protein remaining %: B (80%< substrate protein remaining % ≤100%)
[3]
  IKZF2 substrate protein remaining %: A (0% ≤ substrate protein remaining % ≤80%)
[4]
  IKZF3 substrate protein remaining %: B (80%< substrate protein remaining % ≤100%)
[5]
  CK1α substrate protein remaining %: B (80%< substrate protein remaining % ≤100%)
[6]
  GSPT1 substrate protein remaining %: B (80%< substrate protein remaining % ≤100%)

## O=C1CCN(N2Cc3cc(CN4CCN(c5cc(Cl)nnc5Cl)CC4)ccc3C2=O)C(=O)N1 [GT-07030, 1-(5-((4-(3,6-dichloropyridazin-4-yl)piperazin-1-yl)methyl)-1-oxoisoindolin-2-yl)dihydropyrimidine-2,4(1H,3H)-dione]
[1]
  WEE1 substrate protein remaining %: B (80%< substrate protein remaining % ≤100%)
[2]
  IKZF1 substrate protein remaining %: B (80%< substrate protein remaining % ≤100%)
[3]
  IKZF2 substrate protein remaining %: A (0% ≤ substrate protein remaining % ≤80%)
[4]
  IKZF3 substrate protein remaining %: B (80%< substrate protein remaining % ≤100%)
[5]
  CK1α substrate protein remaining %: B (80%< substrate protein remaining % ≤100%)
[6]
  GSPT1 substrate protein remaining %: B (80%< substrate protein remaining % ≤100%)

## O=C1CCN(N2C(=O)c3ccc(CNC45CC6CC(CC(O)(C6)C4)C5)cc3C2=O)C(=O)N1 [GT-07786, 2-(2,4-dioxotetrahydropyrimidin-1(2H)-yl)-5-((((1r,3s,5R,7S)-3-hydroxyadamantan-1-yl)amino)methyl)isoindoline-1,3-dione]
[1]
  WEE1 substrate protein remaining %: B (80%< substrate protein remaining % ≤100%)
[2]
  IKZF1 substrate protein remaining %: B (80%< substrate protein remaining % ≤100%)
[3]
  IKZF2 substrate protein remaining %: B (80%< substrate protein remaining % ≤100%)
[4]
  IKZF3 substrate protein remaining %: B (80%< substrate protein remaining % ≤100%)
[5]
  CK1α substrate protein remaining %: B (80%< substrate protein remaining % ≤100%)
[6]
  GSPT1 substrate protein remaining %: A (0% ≤ substrate protein remaining % ≤80%)

## O=C1CCN(N2C(=O)c3ccc(CN4CCC(Nc5ccccc5-c5ccc(Cl)cc5)CC4)cc3C2=O)C(=O)N1 [GT-05179, 5-((4-((4′-chloro-[1,1′-biphenyl]-2-yl)amino)piperidin-1-yl)methyl)-2-(2,4-dioxotetrahydropyrimidin-1(2H)-yl)isoindoline-1,3-dione]
[1]
  WEE1 substrate protein remaining %: A (0% ≤ substrate protein remaining % ≤80%)
[2]
  IKZF1 substrate protein remaining %: B (80%< substrate protein remaining % ≤100%)
[3]
  IKZF2 substrate protein remaining %: B (80%< substrate protein remaining % ≤100%)
[4]
  IKZF3 substrate protein remaining %: B (80%< substrate protein remaining % ≤100%)
[5]
  CK1α substrate protein remaining %: B (80%< substrate protein remaining % ≤100%)
[6]
  GSPT1 substrate protein remaining %: B (80%< substrate protein remaining % ≤100%)

## Cc1ccsc1N1CCN(Cc2ccc3c(c2)CN(N2CCC(=O)NC2=O)C3=O)CC1 [GT-05084, 1-(5-((4-(3-methylthiophen-2-yl)piperazin-1-yl)methyl)-1-oxoisoindolin-2-yl)dihydropyrimidine-2,4(1H,3H)-dione]
[1]
  WEE1 substrate protein remaining %: B (80%< substrate protein remaining % ≤100%)
[2]
  IKZF1 substrate protein remaining %: B (80%< substrate protein remaining % ≤100%)
[3]
  IKZF2 substrate protein remaining %: A (0% ≤ substrate protein remaining % ≤80%)
[4]
  IKZF3 substrate protein remaining %: B (80%< substrate protein remaining % ≤100%)
[5]
  CK1α substrate protein remaining %: B (80%< substrate protein remaining % ≤100%)
[6]
  GSPT1 substrate protein remaining %: B (80%< substrate protein remaining % ≤100%)

## O=C1CCN(N2C(=O)c3ccc(CN4CCN(c5ncnc(Cl)c5Cl)CC4)cc3C2=O)C(=O)N1 [GT-07034, 5-((4-(5,6-dichloropyrimidin-4-yl)piperazin-1-yl)methyl)-2-(2,4-dioxotetrahydropyrimidin-1(2H)-yl)isoindoline-1,3-dione]
[1]
  WEE1 substrate protein remaining %: A (0% ≤ substrate protein remaining % ≤80%)
[2]
  IKZF1 substrate protein remaining %: A (0% ≤ substrate protein remaining % ≤80%)
[3]
  IKZF2 substrate protein remaining %: A (0% ≤ substrate protein remaining % ≤80%)
[4]
  IKZF3 substrate protein remaining %: A (0% ≤ substrate protein remaining % ≤80%)
[5]
  CK1α substrate protein remaining %: A (0% ≤ substrate protein remaining % ≤80%)
[6]
  GSPT1 substrate protein remaining %: A (0% ≤ substrate protein remaining % ≤80%)

## Cc1sc2ncnc(C3CCN(Cc4ccc5c(c4)CN(N4CCC(=O)NC4=O)C5=O)CC3)c2c1C [GT-08084, 1-(5-((4-(5,6-dimethylthieno[2,3-d]pyrimidin-4-yl)piperidin-1-yl)methyl)-1-oxoisoindolin-2-yl)dihydropyrimidine-2,4(1H,3H)-dione]
[1]
  WEE1 substrate protein remaining %: B (80%< substrate protein remaining % ≤100%)
[2]
  IKZF1 substrate protein remaining %: B (80%< substrate protein remaining % ≤100%)
[3]
  IKZF2 substrate protein remaining %: B (80%< substrate protein remaining % ≤100%)
[4]
  IKZF3 substrate protein remaining %: B (80%< substrate protein remaining % ≤100%)
[5]
  CK1α substrate protein remaining %: A (0% ≤ substrate protein remaining % ≤80%)
[6]
  GSPT1 substrate protein remaining %: A (0% ≤ substrate protein remaining % ≤80%)

## O=C1CCN(N2C(=O)c3ccc(CN4CCC(c5cccc6cnccc56)CC4)cc3C2=O)C(=O)N1 [GT-07688, 2-(2,4-dioxotetrahydropyrimidin-1(2H)-yl)-5-((4-(isoquinolin-5-yl)piperidin-1-yl)methyl)isoindoline-1,3-dione]
[1]
  WEE1 substrate protein remaining %: B (80%< substrate protein remaining % ≤100%)
[2]
  IKZF1 substrate protein remaining %: B (80%< substrate protein remaining % ≤100%)
[3]
  IKZF2 substrate protein remaining %: B (80%< substrate protein remaining % ≤100%)
[4]
  IKZF3 substrate protein remaining %: B (80%< substrate protein remaining % ≤100%)
[5]
  CK1α substrate protein remaining %: B (80%< substrate protein remaining % ≤100%)
[6]
  GSPT1 substrate protein remaining %: A (0% ≤ substrate protein remaining % ≤80%)

## O=C1CCN(N2C(=O)c3ccc(CN4CCC(c5ccccc5F)CC4)cc3C2=O)C(=O)N1 [GT-06877, 2-(2,4-dioxotetrahydropyrimidin-1(2H)-yl)-5-((4-(2-fluorophenyl)piperidin-1-yl)methyl)isoindoline-1,3-dione]
[1]
  WEE1 substrate protein remaining %: B (80%< substrate protein remaining % ≤100%)
[2]
  IKZF1 substrate protein remaining %: B (80%< substrate protein remaining % ≤100%)
[3]
  IKZF2 substrate protein remaining %: B (80%< substrate protein remaining % ≤100%)
[4]
  IKZF3 substrate protein remaining %: B (80%< substrate protein remaining % ≤100%)
[5]
  CK1α substrate protein remaining %: A (0% ≤ substrate protein remaining % ≤80%)
[6]
  GSPT1 substrate protein remaining %: B (80%< substrate protein remaining % ≤100%)
